Measurements: patent US20260144788A1, “COMPOUND FOR SHP2 PROTEIN DEGRADATION AND MEDICAL USES THEREOF” (UBIX THERAPEUTICS, INC., priority 2022, published 2026)

Molecular target: T1, SHP2 protein (Homo sapiens, UniProt Q06124)
T1 sequence (Q06124 1-593): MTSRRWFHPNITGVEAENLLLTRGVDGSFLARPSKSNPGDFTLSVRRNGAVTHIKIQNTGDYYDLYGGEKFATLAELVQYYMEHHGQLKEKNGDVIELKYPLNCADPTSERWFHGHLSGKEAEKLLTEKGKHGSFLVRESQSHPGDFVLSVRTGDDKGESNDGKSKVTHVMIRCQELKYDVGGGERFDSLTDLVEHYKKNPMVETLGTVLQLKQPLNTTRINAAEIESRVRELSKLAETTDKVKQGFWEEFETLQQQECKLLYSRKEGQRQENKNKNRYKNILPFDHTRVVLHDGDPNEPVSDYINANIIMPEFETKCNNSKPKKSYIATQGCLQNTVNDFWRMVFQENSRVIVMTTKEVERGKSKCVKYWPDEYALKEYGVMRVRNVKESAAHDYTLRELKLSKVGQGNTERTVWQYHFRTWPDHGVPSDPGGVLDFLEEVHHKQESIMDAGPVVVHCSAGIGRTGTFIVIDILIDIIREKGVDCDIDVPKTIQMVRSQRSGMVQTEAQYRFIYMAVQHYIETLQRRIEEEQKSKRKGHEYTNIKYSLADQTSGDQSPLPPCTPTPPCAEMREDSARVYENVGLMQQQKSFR
Assay: Measurement of SHP2 protein degradation in NCI-H358 cells (western blotting)
Type: cell-based
Design: endogenous in cells; host or cells: NCI-H358
Details: harvested after 24 hours
Procedure, shortened: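 H358 cells in RPMI1640/25 mM HEPES/10% FBS, cultured 24 h, then exposed to compound at final 0.001, 0.01 and 0.1 μM for 24 h against a DMSO control. Lysates were normalised for protein by BCA and probed by western blot for SHP2, with GAPDH as loading control.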

| SHP2% degradation (0.01 μM) [%] | SHP2% degradation (0.1 μM) [%] | SMILES |
| --- | --- | --- |
| 98.6 | 98.0 | Cc1ncsc1-c1ccc(CNC(=O)[C@@H]2C[C@@H](O)CN2C(=O)[C@H](C(C)C)n2cc(C3CC3)nn2)c(OC2CCN(C(=O)C3CCN(c4nccc(Sc5cnc(N6CCC(C)(CN)CC6)c(CO)n5)c4Cl)CC3)CC2)c1 [Example 104, (2S,4R)—N-(2-((1-(1-(4-((5-(4-(aminomethyl)-4-methylpiperidin-1-yl)-6-(hydroxymethyl)pyrazin-2-yl)thio)-3-chloropyridin-2-yl)piperidine-4-carbonyl)piperidin-4-yl)oxy)-4-(4-methylthiazol-5-yl)benzyl)-1-((S)-2-(4-cyclopropyl-1H-1,2,3-triazol-1-yl)-3-methylbutanoyl)-4-hydroxypyrrolidine-2-carboxamide] |
| 99.1 | 97.3 | Cc1ncsc1-c1ccc(CNC(=O)[C@@H]2C[C@@H](O)CN2C(=O)[C@H](C(C)C)n2cc(C3CC3)nn2)c(OC2CCN(C(=O)C3CCN(c4nccc(Sc5cnc(N6CCC7(CC6)CO[C@@H](C)[C@H]7N)c(CO)n5)c4Cl)CC3)CC2)c1 [Example 106, (2S,4R)—N-(2-((1-(1-(4-((5-((3S,4S)-4-amino-3-methyl-2-oxa-8-azaspiro[4.5]decan-8-yl)-6-(hydroxymethyl)pyrazin-2-yl)thio)-3-chloropyridin-2-yl)piperidine-4-carbonyl)piperidin-4-yl)oxy)-4-(4-methylthiazol-5-yl)benzyl)-1-((S)-2-(4-cyclopropyl-1H-1,2,3-triazol-1-yl)-3-methylbutanoyl)-4-hydroxypyrrolidine-2-carboxamide] |
| 96.5 | 99.2 | Cc1ncsc1-c1ccc(CNC(=O)[C@@H]2C[C@@H](O)CN2C(=O)[C@@H](n2cc(C3CC3)nn2)C(C)(C)C)c(OC2CCN(C(=O)C3CCN(c4nccc(Sc5cnc(N6CCC(C)(CN)CC6)cn5)c4Cl)CC3)CC2)c1 [Example 107, (2S,4R)—N-(2-((1-(1-(4-((5-(4-(aminomethyl)-4-methylpiperidin-1-yl)pyrazin-2-yl)thio)-3-chloropyridin-2-yl)piperidine-4-carbonyl)piperidin-4-yl)oxy)-4-(4-methylthiazol-5-yl)benzyl)-1-((S)-2-(4-cyclopropyl-1H-1,2,3-triazol-1-yl)-3,3-dimethylbutanoyl)-4-hydroxypyrrolidine-2-carboxamide] |
| 99.1 | 99.6 | Cc1cn([C@H](C(=O)N2C[C@H](O)C[C@H]2C(=O)NCc2ccc(-c3scnc3C)cc2OC2CCN(C(=O)C3CCN(c4nccc(Sc5cnc(N6CCC(C)(CN)CC6)c(CO)n5)c4Cl)CC3)CC2)C(C)C)nn1 [Example 108, (2S,4R)—N-(2-((1-(1-(4-((5-(4-(aminomethyl)-4-methylpiperidin-1-yl)-6-(hydroxymethyl)pyrazin-2-yl)thio)-3-chloropyridin-2-yl)piperidine-4-carbonyl)piperidin-4-yl)oxy)-4-(4-methylthiazol-5-yl)benzyl)-4-hydroxy-1-((S)-3-methyl-2-(4-methyl-1H-1,2,3-triazol-1-yl)butanoyl)pyrrolidine-2-carboxamide] |

More lines, now with the values behind:

| SMILES | SHP2% degradation (0.01 μM) [%] | SHP2% degradation (0.1 μM) [%] |
| --- | --- | --- |
| Cc1ncsc1-c1ccc(CNC(=O)[C@@H]2C[C@@H](O)CN2C(=O)[C@H](C(C)C)n2cc(C3CC3)nn2)c(OC2CCN(C(=O)C3CCN(c4nccc(Sc5cnc(N6CCC(C)(CN)CC6)cn5)c4Cl)CC3)CC2)c1 [Example 101, (2S,4R)—N-(2-((1-(1-(4-((5-(4-(aminomethyl)-4-methylpiperidin-1-yl)pyrazin-2-yl)thio)-3-chloropyridin-2-yl)piperidine-4-carbonyl)piperidin-4-yl)oxy)-4-(4-methylthiazol-5-yl)benzyl)-1-((S)-2-(4-cyclopropyl-1H-1,2,3-triazol-1-yl)-3-methylbutanoyl)-4-hydroxypyrrolidine-2-carboxamide] | 96.3 | 97.4 |
| Cc1ncsc1-c1ccc(CNC(=O)[C@@H]2C[C@@H](O)CN2C(=O)[C@H](C(C)C)n2cc(C3CC3)nn2)c(OC2CCN(C(=O)C3CCN(c4nccc(Sc5cnc(N6CCC(C)(N)CC6)cn5)c4Cl)CC3)CC2)c1 [Example 102, (2S,4R)—N-(2-((1-(1-(4-((5-(4-amino-4-methylpiperidin-1-yl)pyrazin-2-yl)thio)-3-chloropyridin-2-yl)piperidine-4-carbonyl)piperidin-4-yl)oxy)-4-(4-methylthiazol-5-yl)benzyl)-1-((S)-2-(4-cyclopropyl-1H-1,2,3-triazol-1-yl)-3-methylbutanoyl)-4-hydroxypyrrolidine-2-carboxamide] | 99.4 | 99.8 |
| Cc1ncsc1-c1ccc(CNC(=O)[C@@H]2C[C@@H](O)CN2C(=O)[C@H](C(C)C)n2cc(C3CC3)nn2)c(OC2CCN(C(=O)C3CCN(c4nccc(Sc5cnc(N6CCC7(CC6)CO[C@@H](C)[C@H]7N)cn5)c4Cl)CC3)CC2)c1 [Example 103, (2S,4R)—N-(2-((1-(1-(4-((5-((3S,4S)-4-amino-3-methyl-2-oxa-8-azaspiro[4.5]decan-8-yl)pyrazin-2-yl)thio)-3-chloropyridin-2-yl)piperidine-4-carbonyl)piperidin-4-yl)oxy)-4-(4-methylthiazol-5-yl)benzyl)-1-((S)-2-(4-cyclopropyl-1H-1,2,3-triazol-1-yl)-3-methylbutanoyl)-4-hydroxypyrrolidine-2-carboxamide] | 99.9 | 99.7 |
| Cc1ncsc1-c1ccc(CNC(=O)[C@@H]2C[C@@H](O)CN2C(=O)[C@H](C(C)C)n2cc(C3CC3)nn2)c(OC2CCN(C(=O)C3CCN(c4nccc(Sc5cnc(N6CCC(C)(N)CC6)c(CO)n5)c4Cl)CC3)CC2)c1 [Example 105, (2S,4R)—N-(2-((1-(1-(4-((5-(4-amino-4-methylpiperidin-1-yl)-6-(hydroxymethyl)pyrazin-2-yl)thio)-3-chloropyridin-2-yl)piperidine-4-carbonyl)piperidin-4-yl)oxy)-4-(4-methylthiazol-5-yl)benzyl)-1-((S)-2-(4-cyclopropyl-1H-1,2,3-triazol-1-yl)-3-methylbutanoyl)-4-hydroxypyrrolidine-2-carboxamide] | 98.4 | 97.9 |
| Cc1cn([C@H](C(=O)N2C[C@H](O)C[C@H]2C(=O)NCc2ccc(-c3scnc3C)cc2OC2CCN(C(=O)C3CCN(c4nccc(Sc5cnc(N6CCC(C)(N)CC6)c(CO)n5)c4Cl)CC3)CC2)C(C)C)nn1 [Example 109, (2S,4R)—N-(2-((1-(1-(4-((5-(4-amino-4-methylpiperidin-1-yl)-6-(hydroxymethyl)pyrazin-2-yl)thio)-3-chloropyridin-2-yl)piperidine-4-carbonyl)piperidin-4-yl)oxy)-4-(4-methylthiazol-5-yl)benzyl)-4-hydroxy-1-((S)-3-methyl-2-(4-methyl-1H-1,2,3-triazol-1-yl)butanoyl)pyrrolidine-2-carboxamide] | 99.0 | 99.4 |
